Test results as given in patent US20130259835A1, “BIFIDOBACTERIUM ADOLESCENTIS SPM0212 HAVING ANTIVIRAL ACTIVITY FOR HEPATITIS B VIRUS, AND PHARMACEUTICAL COMPOSITION FOR PREVENTING AND TREATING HEPATITIS B COMPRISING THEREOF” (SAHMYOOK UNIVERSITY INDUSTRY-ACADEMIC COOPERATION, priority 2011, published 2013).

Assays:
[1] = system: Bifidobacterium adolescentis KCTC3352; assay: Antibiotics sensitivity, agar dilution MIC; assay type: cell-based; details: strain KCTC3352; Table 5
Method: (§1) Antibiotics sensitivity test was performed for comparative analysis of phenotypes of the lactobacillus strain separated in Example 1 and standard strains purchased from KCTC. In order to find out the minimum inhibitory concentrations (MICs) of 18 kinds of antibiotics (ampicillin, mupirocin, amoxicillin/clavulanic acid, oxacillin, cefonicid, cefazolin, ceftazidime, cefotaxime, ceftriaxone, tigecyclin, streptomycin, vancomycin, teicoplanin, daptomycin, linezolid, clindamycin, quinupristin/dalfopristin and tobramycin), agar dilution method was performed according to the Clinical and Laboratory Standards Institute (CLSI, 2003), and the results were listed in Tables 4 and 5.

[2] = system: Bifidobacterium adolescentis SPM0212; assay: Antibiotics sensitivity, agar dilution MIC; assay type: cell-based; details: strain SPM0212; Table 5
Method: as §1

[3] = system: Bifidobacterium adolescentis SPM0214; assay: Antibiotics sensitivity, agar dilution MIC; assay type: cell-based; details: strain SPM0214; Table 5
Method: as §1

[4] = system: Bifidobacterium adolescentis SPM0308; assay: Antibiotics sensitivity, agar dilution MIC; assay type: cell-based; details: strain SPM0308; Table 5
Method: as §1

[5] = system: Bifidobacterium adolescentis SPM1005; assay: Antibiotics sensitivity, agar dilution MIC; assay type: cell-based; details: strain SPM1005; Table 5
Method: as §1

[6] = system: Bifidobacterium adolescentis SPM1307-A; assay: Antibiotics sensitivity, agar dilution MIC; assay type: cell-based; details: strain SPM1307-A; Table 5
Method: as §1

[7] = system: Bifidobacterium adolescentis SPM1601; assay: Antibiotics sensitivity, agar dilution MIC; assay type: cell-based; details: strain SPM1601; Table 5
Method: as §1

[8] = system: Bifidobacterium adolescentis SPM1604; assay: Antibiotics sensitivity, agar dilution MIC; assay type: cell-based; details: strain SPM1604; Table 5
Method: as §1

[9] = system: Bifidobacterium adolescentis SPM1605; assay: Antibiotics sensitivity, agar dilution MIC; assay type: cell-based; details: strain SPM1605; Table 5
Method: as §1

[10] = system: Bifidobacterium adolescentis SPM1606; assay: Antibiotics sensitivity, agar dilution MIC; assay type: cell-based; details: strain SPM1606; Table 5
Method: as §1

[11] = system: Bifidobacterium adolescentis SPM1608; assay: Antibiotics sensitivity, agar dilution MIC; assay type: cell-based; details: strain SPM1608; Table 5
Method: as §1

[12] = system: Bifidobacterium longum KCTC3128; assay: Antibiotics sensitivity, agar dilution MIC; assay type: cell-based; details: strain KCTC3128; Table 5
Method: as §1

[13] = system: Bifidobacterium longum SPM1205; assay: Antibiotics sensitivity, agar dilution MIC; assay type: cell-based; details: strain SPM1205; Table 5
Method: as §1

[14] = system: Bifidobacterium longum SPM1206; assay: Antibiotics sensitivity, agar dilution MIC; assay type: cell-based; details: strain SPM1206; Table 5
Method: as §1

[15] = system: Bifidobacterium longum SPM1207; assay: Antibiotics sensitivity, agar dilution MIC; assay type: cell-based; details: strain SPM1207; Table 5
Method: as §1

[16] = system: Bifidobacterium pseudocatenulatum KCTC3223; assay: Antibiotics sensitivity, agar dilution MIC; assay type: cell-based; details: strain KCTC3223; Table 5
Method: as §1

[17] = system: Bifidobacterium pseudocatenulatum SPM1204; assay: Antibiotics sensitivity, agar dilution MIC; assay type: cell-based; details: strain SPM1204; Table 5
Method: as §1

[18] = system: Bifidobacterium pseudocatenulatum SPM1309; assay: Antibiotics sensitivity, agar dilution MIC; assay type: cell-based; details: strain SPM1309; Table 5
Method: as §1

[19] = system: hepatitis B virus; details: administered 3 times a week for at least 3 months; average; cited from earlier work

| Compound | Minimum inhibitory concentrations (MICs) [1] [μl/Ml] | Minimum inhibitory concentrations (MICs) [2] [μl/Ml] | Minimum inhibitory concentrations (MICs) [3] [μl/Ml] | Minimum inhibitory concentrations (MICs) [4] [μl/Ml] | Minimum inhibitory concentrations (MICs) [5] [μl/Ml] | Minimum inhibitory concentrations (MICs) [6] [μl/Ml] | Minimum inhibitory concentrations (MICs) [7] [μl/Ml] | Minimum inhibitory concentrations (MICs) [8] | Minimum inhibitory concentrations (MICs) [9] [μl/Ml] | Minimum inhibitory concentrations (MICs) [10] | Minimum inhibitory concentrations (MICs) [11] [μl/Ml] | Minimum inhibitory concentrations (MICs) [12] [μl/Ml] | Minimum inhibitory concentrations (MICs) [13] [μl/Ml] | Minimum inhibitory concentrations (MICs) [14] [μl/Ml] | Minimum inhibitory concentrations (MICs) [15] | Minimum inhibitory concentrations (MICs) [16] [μl/Ml] | Minimum inhibitory concentrations (MICs) [17] [μl/Ml] | Minimum inhibitory concentrations (MICs) [18] [μl/Ml] | patients with treatment effect of inhibiting the virus replication [19] [%] |
| --- | --- | --- | --- | --- | --- | --- | --- | --- | --- | --- | --- | --- | --- | --- | --- | --- | --- | --- | --- |
| CN[C@H](CC(C)C)C(=O)N[C@H]1C(=O)N[C@@H](CC(N)=O)C(=O)N[C@H]2C(=O)N[C@H]3C(=O)N[C@H](C(=O)N[C@H](C(=O)O)c4cc(O)cc(O)c4-c4cc3ccc4O)[C@H](O)c3ccc(c(Cl)c3)Oc3cc2cc(c3O[C@@H]2O[C@H](CO)[C@@H](O)[C@H](O)[C@H]2O[C@H]2C[C@](C)(N)[C@H](O)[C@H](C)O2)Oc2ccc(cc2Cl)[C@H]1O [VAN, vancomycin] | 2 | 2 | 2 | 2 | 2 | 2 | 2 | ≦0.06 μl/Ml | 2 | ≦0.06 μl/Ml | 2 | 4 | 2 | 2 | 2 μl/Ml | 4 | 2 | 2 | – |
| interferon-α | – | – | – | – | – | – | – | – | – | – | – | – | – | – | – | – | – | – | 20 |
| teicoplanin [TEC] | 2 | 2 | 2 | 2 | 1 | 0.5 | 2 | ≦0.06 μl/Ml | 1 | ≦0.06 μl/Ml | 2 | 2 | 0.5 | 1 | 1 | 2 | 2 | 0.25 | – |
